# US12653805B2, “Targeting LASP1, eIF4A1, eIF4B and CXC4 with modulators and combinations thereof for cancer therapy” (The University of Toledo, priority 2019, dated 2026)
# Legend:
# [1] = system: MDA-Bone-Un eIF4A CC and KO cells; experiment: Viability of MDA-Bone-Un eIF4A CRISPR control and knockout cells after RocA; type: cell-based, human; conditions: 48 h
# Method: (§1) Briefly, to assess the cell viability, 3×10^3 cells/well (SUM-159PT, SUM Pac 200 nM, MDA-Bone-Un eIF4A CC and KO) were seeded and the cells were allowed to attach and spread overnight under adherent or non-adherent low attachment conditions.
# [2] = system: BCSCs derived from MDA-Bone-Un cells; experiment: Mammosphere formation efficiency (MFE) assay, BCSCs from MDA-Bone-Un; type: cell-based, human; conditions: 10 nM RocA, p<0.0001
# Method: (§2) The evaluation of MFE was performed as described previously. Briefly, 1×10^3 ALDH+ BCSCs of MDA-Bone-Un or SUM-159PT origins were seeded onto 96-well ultra-low attachment plates. They were maintained in DMEM/F12 media supplemented with […] bFGF, […] hEGF, 2% B27 mixture, and 1% penicillin/streptomycin for 7 days. The mammosphere images were obtained longitudinally by employing IncuCyte® S3 Live-Cell Analysis System (Essen BioScience, Ann Arbor, Mich.). On day 7, MFE was calculated by employing the formula: (number of mammospheres formed/total number of cells seeded)×100. A diameter of 100 μm was used as a cut-off in the determination of the mammosphere forming ability. For the assessment of secondary MFE, the BCSCs from primary MFE were collected, centrifuged, and re-seeded onto 96-well plates coated with poly 2-hydroxyethyl methacrylate (poly-HEMA). The cells were monitored, and the mammospheres were counted using IncuCyte.
# [3] = system: BCSCs derived from MDA-Bone-Un cells; experiment: DRAQ7 cell death assay in BCSCs from MDA-Bone-Un; type: cell-based, human; conditions: 30 nM RocA, 7 days
# Method: (§3) The induction of cell death by the small molecule inhibitor rocaglamide A (RocA) (Sigma/Aldrich, St. Louis, Mo., Cat. #—SML0656) was followed by employing Deep Red Anthraquinone 7 (DRAQ7) dye (Abcam, Cat. #—ab109202). DRAQ7 is a cell impermeable, far-red fluorescent DNA dye that stains the nuclei of dead and plasma membrane-compromised cells. […] For the cell death analysis, ALDH+ BCSCs were treated with the indicated drug dosage for 7 days. On day 7, DRAQ7 was added to the cells (1:2,000 dilution) and incubated overnight. Dead BCSCs were tracked by DRAQ7 fluorescence by employing the EVOS cell imaging system (ThermoFisher Scientific, Rockford, Ill.).
# [4] = system: SUM-159PT cells; experiment: Viability of parental and paclitaxel-resistant SUM-159PT cells after RocA; type: cell-based, human; conditions: therapy naïve and paclitaxel-resistant (Pac 200) cells, 48 h, adherent and non-adherent conditions
# Method: as §1
# [5] = system: BCSCs derived from MDA-Bone-Un cells; experiment: Immunoblotting of RocA-treated BCSCs from MDA-Bone-Un; type: cell-based, human
# [6] = system: BCSCs derived from SUM-159PT cells; experiment: DRAQ7 cell death assay in BCSCs from SUM-159PT; type: cell-based, human; conditions: 5 nM RocA, day 7
# Method: as §3
# [7] = system: BCSCs derived from MDA-Bone-Un cells; experiment: CellTiter-Glo viability assay in BCSCs from MDA-Bone-Un; type: cell-based, human; conditions: 7 days
# Description: (§4) The cell viability was alternatively determined on day 7 following treatment with RocA by employing the CellTiter-Glo® luminescent cell viability kit (Promega, Cat. #—G7570) as per the manufacturer's instructions. This quantitative assay is a homogeneous method of determining the number of viable cells in culture based on the amount of adenosine triphosphate (ATP) present inside the cells.
# [8] = system: 231S LASP1 NS and KD cells; experiment: Pharmacological inhibition of eIF4A in 231S LASP1 NS and KD cells; type: cell-based, human
# Method: 231S LASP1 NS/KD cells were plated into 96-well dishes (3,000 cells/well) and incubated with various amounts of rocaglamide A (RocA) (Sigma/Aldrich, St. Louis, Mo., Cat. No. SML0656) in low serum media (LSM-DMEM/0.5% FBS). Images were acquired via an IncuCyte R S3 Live-Cell Analysis System (Essen BioScience, Ann Arbor, Mich.). Two images per well were acquired every 2 h. Data was processed on the IncuCyte S3 software (Essen BioScience, Ann Arbor, Mich.). Only cells with an area >150 μm^2 were analyzed to avoid cellular debris. Data is reflective of the percent confluence of each image at 36 h RocA incubation. Percent inhibition was calculated in reference to the DMSO control. The readings from 231S LASP1 NS cells were set to 1. In the cell viability experiments, 231S LASP1 NS/KD cells were seeded at 6,000 cells/well and allowed to attach and spread overnight. The following day, complete media was replaced with LSM and RocA. Cell viability was then determined 36 h later using a cell counting kit-8 (Sigma/Aldrich, St. Louis, Mo., Cat. No 96992) according to the manufacturer's instructions. Data is reflective of the absorbance at 450 nm (A450). The DMSO controls were set to 100%.
# [9] = system: BCSCs derived from SUM-159PT cells; experiment: CellTiter-Glo viability assay in BCSCs from SUM-159PT; type: cell-based, human; conditions: 5 nM RocA
# Description: as §4
# [10] = system: BCSCs derived from SUM-159PT cells; experiment: Mammosphere formation efficiency (MFE) assay, BCSCs from SUM-159PT; type: cell-based, human
# Method: as §2
# [11] = biological target: T1, eIF4A1 (Homo sapiens, UniProt P60842); type: cell-based
# T1 construct: A GQ-5′-UTR dual reporter was created in breast cancer cell lines; endogenous in cells
# T1 sequence (P60842 whole entry): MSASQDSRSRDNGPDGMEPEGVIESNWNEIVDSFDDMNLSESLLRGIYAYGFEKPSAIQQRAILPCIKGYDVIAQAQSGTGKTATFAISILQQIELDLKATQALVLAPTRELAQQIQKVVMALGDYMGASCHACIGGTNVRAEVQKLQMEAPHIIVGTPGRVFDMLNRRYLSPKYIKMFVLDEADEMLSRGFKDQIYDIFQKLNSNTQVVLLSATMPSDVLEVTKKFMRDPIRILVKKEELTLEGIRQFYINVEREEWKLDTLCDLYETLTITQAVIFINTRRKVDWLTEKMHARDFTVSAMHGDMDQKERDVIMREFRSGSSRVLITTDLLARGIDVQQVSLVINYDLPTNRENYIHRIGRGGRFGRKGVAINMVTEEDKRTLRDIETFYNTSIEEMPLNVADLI
# Description: A GQ-5′-UTR dual reporter was created in breast cancer cell lines which would report either a reduction in td-Tomato fluorescence or luciferase activity if eIF4A1 is inhibited by any of the compounds in the Prestwick library (FIGS. 26A-26B).
# [12] = system: triple-negative MDA-MB-231 cells; experiment: Immunoblotting after digoxin in MDA-MB-231 cells; type: cell-based, human
# [13] = system: triple-negative SUM-159-PT cells; experiment: Immunoblotting after digoxin in SUM-159-PT cells; type: cell-based, human; conditions: 30 nM digoxin (low dose)
# [14] = system: MCF7 breast cancer cells; conditions: RNA-Seq data, p 4.3E−10, adjusted p 8.5E−7; cited from earlier work
# [15] = 45 nM RocA, 72 h, pooled replicates
compound,measurement,setting,value
COc1ccc([C@@]23Oc4cc(OC)cc(OC)c4[C@]2(O)[C@H](O)[C@H](C(=O)N(C)C)[C@H]3c2ccccc2)cc1 [rocaglamide A],viability following RocA challenge,[1]; MDA-Bone-Un eIF4A CC cells,steep decrease in viability
same,sensitivity of viability to RocA,"[1]; MDA-Bone-Un eIF4A KO cells, up to 60 nM RocA",relatively insensitive
same,reduction of the primary mammospheres,[2],~50%
same,secondary MFE,[2],severely impacted
same,DRAQ7 staining (dead BCSCs),[3],intense DRAQ7 staining
same,targeting of cell viability,[4],effective
same,reduction in NANOG level,"[5]; 15 nM RocA, 48 h",2 fold
same,reduction of ABC transporter ABCB1,"[5]; 45 nM RocA, 48 and 72 h, pooled replicates",10 fold
same,decrease of SOX2 level,"[5]; 45 nM RocA, 24 h, pooled replicates",10 fold
same,reduction in NANOG level,"[5]; 45 nM RocA, 48 h",10 fold
same,reduction of OCT4,"[5]; 45 nM RocA, 48 h (dose experiment)",3.3 fold
same,decrease of OCT4,"[5]; 45 nM RocA, 48 h, 3 biological replicates pooled",2.5 fold
same,SOX2 level increased back,"[5]; 45 nM RocA, 48 h, pooled replicates",2 fold
same,SOX2,[5]; [15],degradation of SOX2 was observed
same,decrease of OCT4,[5]; [15],10 fold
same,"expression of BIRC5, Cyclin D1, Cyclin D3, and ROCK1","[5]; 15, 30, and 45 nM RocA, 48 h",dramatic reduction
same,total protein level of eIF4A,"[5]; 15, 30, and 45 nM RocA, 48 h",did not affect
same,induction of cleaved caspase-3 (increase),"[5]; RocA 15-45 nM, 48 h",up to 17.1 fold
same,levels of the BCSC markers ALDH1A1 and CD44,"[5]; RocA, 48 h",not affected
same,SOX2 level,"[5]; all concentrations of RocA, 48 h",remained elevated above the basal level
same,BCSCs intensely stained with DRAQ7,[6],More than 50%
same,viability based on ATP level,[7]; 30 nM RocA,nearly all BCSCs were wiped out
same,IC50,"[7]; cellular ATP, read-out: half maximal inhibitory concentration (IC50)",15 nM
same,cellular viability,"[8]; 231S LASP1 KD cells, RocA 36 h, cell counting kit-8",significantly decreased
same,BIRC5 levels,"[8]; 231S LASP1 NS cells, 24 h RocA, 30 to 100 nM",dose-dependent decrease
same,proliferation,[8]; MDA-MB-231 cells with stable knockdown of LASP1 combined with rocaglamide A,effectively inhibited
same,cells dead,[9],More than 50%
same,reduction in formation of the primary mammospheres,[10]; 10 nM RocA,50%
same,decrease in secondary MFE,"[10]; RocA, compared with primary MFE",more drastic
C[C@H]1O[C@@H](O[C@H]2[C@@H](O)C[C@H](O[C@H]3[C@@H](O)C[C@H](O[C@H]4CC[C@@]5(C)[C@H](CC[C@@H]6[C@@H]5C[C@@H](O)[C@]5(C)[C@@H](C7=CC(=O)OC7)CC[C@]65O)C4)O[C@@H]3C)O[C@@H]2C)C[C@H](O)[C@@H]1O [digoxin],activity of eIF4A1,[11]; 3 different TNBC cell lines,potently inhibited
same,Z-score,[11]; Prestwick chemical library screen,below −5
same,downstream effectors of eIF4A1 activity BIRC5 (survivin) and Rho Kinase 1 (ROCK1),[12],dose-dependent inhibition
same,downregulation (reduction) of c-MYC,[13],60%
same,downregulation of the levels of eIF4A1,[13],50%
same,C-Myc mRNA level,[14],decrease
